{
  "source": "paper PMC11612208",
  "about": "“A novel small molecule Enpp1 inhibitor improves tumor control following radiation therapy by targeting stromal Enpp1 expression” (Scientific Reports, 2024)",
  "key": {"Enpp1 [1]": {"biological_target": "T1, Enpp1 (Homo sapiens, UniProt P22413)", "T1 sequence (P22413 1-925)": "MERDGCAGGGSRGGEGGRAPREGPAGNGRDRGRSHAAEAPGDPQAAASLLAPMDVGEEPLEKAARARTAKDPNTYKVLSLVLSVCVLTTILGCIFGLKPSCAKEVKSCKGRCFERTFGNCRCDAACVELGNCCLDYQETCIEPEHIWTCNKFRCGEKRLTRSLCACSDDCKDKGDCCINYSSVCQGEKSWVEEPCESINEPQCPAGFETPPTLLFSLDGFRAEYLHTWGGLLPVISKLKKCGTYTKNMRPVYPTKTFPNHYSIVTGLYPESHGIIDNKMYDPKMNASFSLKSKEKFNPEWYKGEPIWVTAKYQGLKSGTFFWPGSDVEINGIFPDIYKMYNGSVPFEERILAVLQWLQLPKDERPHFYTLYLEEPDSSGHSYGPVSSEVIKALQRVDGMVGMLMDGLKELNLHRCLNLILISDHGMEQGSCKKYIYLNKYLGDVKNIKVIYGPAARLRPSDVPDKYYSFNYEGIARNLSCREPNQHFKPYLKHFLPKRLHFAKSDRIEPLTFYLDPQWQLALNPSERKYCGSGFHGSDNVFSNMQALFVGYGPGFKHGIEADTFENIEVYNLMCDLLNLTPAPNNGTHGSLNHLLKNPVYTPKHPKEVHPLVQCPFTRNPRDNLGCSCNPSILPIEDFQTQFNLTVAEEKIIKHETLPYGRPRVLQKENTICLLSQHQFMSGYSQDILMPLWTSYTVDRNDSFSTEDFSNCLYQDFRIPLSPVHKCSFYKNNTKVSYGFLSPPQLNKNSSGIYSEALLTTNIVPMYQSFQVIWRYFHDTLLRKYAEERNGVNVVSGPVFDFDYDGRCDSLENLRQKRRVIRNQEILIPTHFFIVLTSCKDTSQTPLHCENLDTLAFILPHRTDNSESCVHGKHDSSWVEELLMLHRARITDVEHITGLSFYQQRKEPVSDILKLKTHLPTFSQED", "assay": "Enzymatic inhibition of recombinant ENPP1 cGAMP hydrolysis (AMP-Glo)", "format": "biochemical", "design": "purchased R&D Systems 6136-EN-010", "details": "recombinant ENPP1 1.5 nM, 20 uM 2'3'-cGAMP; value is the lower threshold of the assay", "procedure": "(§1) Enzymatic inhibition assays were performed by incubating 1.5 nM ENPP1 (R&D Systems cat# 6136-EN-010) with serial dilutions of Vir-3 for 15 minutes at 37 °C in buffer (50mM Tris pH 8.0, 250mM NaCl, 0.5mM CaCl2, 1uM ZnCl2, 1% DMSO) before adding 20 uM 2’3’-cGAMP (Invivogen cat.# tlrl-nacga23). The reaction was incubated for 30 min at 37 °C prior to assessing the generated AMP using the AMP-Glo assay (Promega cat.# V5012). Cellular inhibition of cGAMP hydrolysis was performed using HepG2 cells pre-incubated with serial dilutions of Vir-3 in DMEM + 10% Charcoal stripped FBS for 30 min at 37 °C with 5% CO2. 100 ng/mL of 2’3’-cGAMP was then added to the cells and incubated for 20 h at 37 °C with 5% CO2. Media was then removed and the remaining cGAMP was quantified using a 2’3’-cGAMP ELISA kit (Cayman Chemical cat.# 501700)."}, "Enpp1 [2]": {"biological_target": "T1, Enpp1", "assay": "Selectivity and specificity for Enpp1 (statement)", "details": "additional studies necessary to confirm in vivo"}, "[3]": {"assay": "Toxicity observation in treated mice", "format": "in vivo", "details": "mice treated with oral VIR3"}, "[4]": {"system": "cDC1 and cDC2 in MC38 tumors", "assay": "Flow cytometry of myeloid infiltration in MC38 tumors", "format": "in vivo, mouse", "details": "4 days following radiation time point (d18)", "procedure": "Analysis of tumor infiltrating myeloid cells was performed as previously described. Briefly, following dissection, tumors were weighed and minced into small fragments, then transferred into C tubes from Miltenyi Biotec containing enzyme digest mix with 250U/mL collagenase IV (Worthington Biochemical, #LS004188), 30U/mL DNase I (Millipore-Sigma, #4536282001), 5mM CaCl2, 5% heat inactivated FBS and HBSS. Tissue was dissociated using a GentleMACS tissue dissociator from Miltenyi Biotech. This was followed by incubation at 37 °C for 30 min with agitation. Enzymatic reactions were quenched using ice cold RPMI containing 10% FBS and 2mM EDTA. Single cell suspensions were then filtered through 100 μm (tumor) or 40 μm (dLN) nylon cell strainers to remove macroscopic debris. Cells were washed and counted for staining. 2 × 10^6 cells were stained with Zombie Aqua Viability Dye from BioLegend (#423102) in PBS for 10 min on ice, then Fc receptors were blocked with anti-CD16/CD32 antibodies from BD Biosciences (2.4G2) for an additional 10 min. After centrifugation, the supernatant was removed and cell were stained with a surface antibody cocktail containing in FACS buffer (PBS, 2mM EDTA, 2% FBS) and Brilliant Stain Buffer Plus from BD Biosciences (#566385) for 20 min on ice. […] Data were analyzed using FlowJo software from Tree Star, v10.7. […]"}, "CT26 tumors": {"system": "CT26 tumors", "assay": "CT26 tumor model in BALB/c mice, VIR3 oral gavage +/- 12 Gy focal RT, survival", "format": "in vivo, mouse", "details": "daily oral gavage for 21 days", "procedure": "(§2) Tumors were implanted subcutaneously into the right flank as follows: C57BL/6 2 × 10^5 MC38; BALB/c 2 × 10^5 CT26. When tumors were approximately 5 mm in average diameter at approximately 10–14 days following implantation, mice were randomized to receive treatment with CT-guided radiation using the Small Animal Radiation Research Platform (SARRP) from XStrahl. Dosimetry was performed using Murislice software from XStrahl. The SARRP delivered a single dose of 12 Gy to an isocenter within the tumor using a 10 mm x 10 mm collimator and a 45° beam angle to minimize dose delivery to normal tissues. The Enpp1 inhibitor VIR3 was delivered through oral gavage starting 1 day prior to RT daily for 21 days. Tumors were measured using calipers in two directions and reported as mean tumor diameter. Survival curves were based on an endpoint of tumor diameter of greater than 12 mm in any direction."}, "MC38 tumors": {"system": "MC38 tumors", "assay": "MC38 tumor model, VIR3 oral gavage +/- 12 Gy focal RT, survival", "format": "in vivo, mouse", "procedure": "as §2\nTo deplete CD8 T cells, 200 µg of depleting anti-CD8b (53 − 5.8, BioXCell, West Lebanon, NH) were administered intraperitoneally. This administration took place one day before the first dose of Vir3, followed by two additional anti-CD8b administrations at 7-day intervals."}, "MC38 and CT26 tumors": {"system": "MC38 and CT26 tumors", "assay": "RNASeq of tumors 4 days following radiation treatment", "format": "in vivo, mouse", "details": "VIR3 treatment", "procedure": "Mice were implanted with tumors and randomized to treatment with 12 Gy RT and VIR3 as above. 4d following RT, the tumors were harvested, debulked and immediately flash frozen by rapid immersion in liquid nitrogen. Frozen tumors were crushed, treated with 500 µl of RNAlater, then frozen at -80 °C. To extract RNA, the samples were thawed on ice, and 500 µl of buffer RLT (QIAGEN Cat. No. 79219) was added and samples were homogenized. Following centrifugation, RNA was isolated using a QIAGEN RNeasy Plus Mini Kit (Cat No. 74134), according to the manufacturer’s instructions. Quality was checked on nanodrop (ND-1000) and the quantity of RNA was determined on Qubit 4 flourometer. To prepare for sequencing, samples were processed using an Illumnia TruSeq® Stranded mRNA Library Prep kit with Illumina TruSeq RNA Single Indexes Set A and Set B barcoding kits. An Illumnia NovaSeq 6000 S1 Reagent Kit v1.5 was used to make RNA libraries along with a NovaSeq XP 2-Lane Kit v1.5. RNA libraries were sequenced on NovaSeq 6000.\nDemultiplexed fastq files for all samples were first processed with FastQC for general quality control. All the samples in the sequencing run passed read level QC with at least 17 million reads per sample. Average read depth across all samples were 51 million reads. Raw illumina BCL data was demultiplexed using Illumina bcl2fastq2 v2.20. Gene expression counts were quantified using salmon-v.1.1.0 [76] for all samples sequenced. Differential gene expression analysis was performed using the R software package edgeR[77]. Differential gene expression analysis was performed on all groups of Tumor+/-Drug+/-RT combinations. Gene set enrichment analysis was performed using GSEA v4.3.2 Preranked method[78],[79]. The following genesets; c3.all.v2023.2.Hs.symbols.gmt, c5.all.v2023.2.Hs.symbols.gmt, c7.all.v2023.2.Hs.symbols.gmt from Molecular Signatures Database (gsea-msigdb.org) were used for enrichment analysis."}, "[5]": {"assay": "In vivo pharmacokinetics, IV and PO", "details": "mouse", "procedure": "For pharmacokinetic analysis, female C57BL6 mice were dosed with Vir-3 by either IV administration or oral gavage or IV administration either once or daily for 5 days. 3 mice were used per time point with staggered groups to cover all times. Blood was collected at 0.25, 0.5, 1, 3-, 5-, 8- and 24-hours post-dose into heparinized tubes. Plasma was prepared from each sample and protein precipitated prior to LC-MS/MS injection. Levels of Vir-3 were quantitated, and data was analyzed using Certara’s Phoenix Winnonlin."}, "[6]": {"biological_target": "T2, HepG2 cells that express ENPP1 on their surface (Homo sapiens, UniProt P22413)", "T2 construct": "HepG2 cells that express ENPP1 on their surface; host or cells: HepG2", "T2 sequence (P22413 1-925)": "T1 sequence (P22413 1-925)", "assay": "Cellular inhibition of cGAMP hydrolysis on HepG2 cells (cGAMP ELISA)", "format": "cell-based", "details": "100 ng/mL 2'3'-cGAMP, overnight (20 h), read-out: EC50, protection of spiked-in cGAMP from hydrolysis", "procedure": "as §1"}},
  "data": [
    {"smiles": "COc1ccc2c(Nc3ccc(S(=N)(=O)NCC(C)O)cc3)ccnc2c1", "note": "(centres unmarked) [VIR3]", "values": [
      {"measurement": "IC50", "setting": "Enpp1 [1]", "value": "< 0.75", "unit": "nM"},
      {"measurement": "selectivity and specificity for Enpp1", "setting": "Enpp1 [2]", "value": "high selectivity and specificity"},
      {"measurement": "toxicity", "setting": "[3]", "value": "toxicity was not observed"},
      {"measurement": "dendritic cells (cDC1, cDC2) in tumor, VIR3 alone", "setting": "[4]", "value": "can cause DC loss"},
      {"measurement": "response to radiation therapy (survival), VIR3 + RT", "setting": "CT26 tumors; 12 Gy on day 14", "value": "significantly improved the response to radiation therapy"},
      {"measurement": "tumor growth, VIR3 alone", "setting": "CT26 tumors; no RT", "value": "did not impact tumor growth alone"},
      {"measurement": "response to radiation therapy (survival), VIR3 + RT", "setting": "MC38 tumors; MC38 tumors in C57BL/6 mice, daily oral gavage for 21 days, 12 Gy on second day of dosing", "value": "significantly improved the response to radiation therapy"},
      {"measurement": "tumor growth, VIR3 alone", "setting": "MC38 tumors; MC38 tumors in C57BL/6 mice, daily oral gavage for 21 days, no RT", "value": "did not impact tumor growth alone"},
      {"measurement": "response to RT + VIR3 with loss of IFNAR1 in host cells", "setting": "MC38 tumors; MC38 tumors in IFNAR1-/- mice", "value": "completely abrogated all responses to treatment"},
      {"measurement": "tumor control by RT + VIR3 with loss of STING in host cells", "setting": "MC38 tumors; MC38 tumors in STING-/- mice, no statistically significant difference in survival by logrank test", "value": "fewer mice cured"},
      {"measurement": "tumor control by RT + VIR3 with CD8 depletion", "setting": "MC38 tumors; MC38 tumors, wt mice, anti-CD8 given", "value": "abrogated tumor control"},
      {"measurement": "Cdkn1a and Ccl2 gene expression in tumor", "setting": "MC38 and CT26 tumors; CT26 and MC38 tumors", "value": "not impacted"},
      {"measurement": "Tsc33d3 gene expression in tumor", "setting": "MC38 and CT26 tumors; both CT26 and MC38 tumors", "value": "upregulated"},
      {"measurement": "Wee1 gene expression in tumor", "setting": "MC38 and CT26 tumors; untreated and irradiated CT26 and MC38 tumors, FDR correction", "value": "significantly regulated"},
      {"measurement": "Cmax, total", "setting": "[5]; P.O. 60 mg/kg", "value": 795, "unit": "ng/mL"},
      {"measurement": "oral bioavailability (in words)", "setting": "[5]; comparing IV and PO routes", "value": "low"},
      {"measurement": "half-life", "setting": "[5]; female, C57BL6, plasma, iv, I.V. 1 mg/kg", "value": 2900, "unit": "min"},
      {"measurement": "clearance", "setting": "[5]; female, C57BL6, plasma, iv, I.V. 1 mg/kg, approximate given extrapolation from a portion of AUCinf", "value": "~27.7", "unit": "mL/min/kg"},
      {"measurement": "Vd", "setting": "[5]; female, C57BL6, plasma, iv, I.V. 1 mg/kg, read-out: Vss", "value": 52.5, "unit": "L/kg"},
      {"measurement": "bioavailability", "setting": "[5]; female, C57BL6, plasma, oral, P.O. 60 mg/kg vs I.V. 1 mg/kg", "value": 5.7, "unit": "%"},
      {"measurement": "half-life", "setting": "[5]; female, C57BL6, plasma, po, P.O. 60 mg/kg", "value": 1460, "unit": "min"},
      {"measurement": "AUC(0-t)", "setting": "[5]; female, C57BL6, plasma, po, P.O. 60 mg/kg, read-out: AUC0-last, total", "value": 1420, "unit": "ng·h/mL"},
      {"measurement": "EC50", "setting": "[6]", "value": 6.7, "unit": "nM"}
    ]}
  ]
}
